From patent US8629168B2, “Benzoxazoles and oxazolopyridines being useful as janus kinases inhibitors” (priority 2006, dated 2014)

How the values were obtained:
GST-JAK2 = biological target: T1, GST-JAK2 (Homo sapiens, UniProt O60674); experiment: JAK2 kinase assay of the general description (alternative method, flash plate); format: biochemical; settings: 1.0 μM ATP, read-out: IC50 with test in general description (named “alternative method to that given in the examples”) (“flash plate”)
T1 construct: the amino acid domain ASP751-VAL1129 of the JAK2 protein
T1 sequence (O60674 751-1129): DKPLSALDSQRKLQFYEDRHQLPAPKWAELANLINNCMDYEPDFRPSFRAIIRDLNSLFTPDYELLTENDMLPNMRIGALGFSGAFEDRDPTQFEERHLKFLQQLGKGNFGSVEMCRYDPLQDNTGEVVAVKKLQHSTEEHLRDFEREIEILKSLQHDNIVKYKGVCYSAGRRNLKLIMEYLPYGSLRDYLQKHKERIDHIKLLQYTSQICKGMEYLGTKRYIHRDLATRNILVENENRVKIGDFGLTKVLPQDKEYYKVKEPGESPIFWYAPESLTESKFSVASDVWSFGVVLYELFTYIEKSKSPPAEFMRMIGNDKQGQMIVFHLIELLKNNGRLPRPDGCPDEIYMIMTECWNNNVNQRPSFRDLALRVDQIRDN
Description: Baculovirus including the amino acid domain ASP751-VAL1129 of the JAK2 protein is obtainable by ProQinase, Freiburg, Germany. The virus is scaled up as following: Virus containing media is collected from the transfected cell culture and used for infection to increase its titer. Virus containing media obtained after two rounds of infection is used for large-scale protein expression. For large-scale protein expression 100 cm^2 round tissue culture plates are seeded with 5×10^7 cells/plate and infected with 1 mL of virus-containing media (approx. 5 MOIs). After 3 days the cells are scraped off the plate and centrifuged at 500 rpm for 5 min. Cell pellets from 10-20, 100 cm^2 plates, are re-suspended in 50 mL of ice-cold lysis buffer (25 mMTris-HCl, pH7.5, 2 mMEDTA, 1% NP-40, 1 mM DTT, 1 mMP MSF). The cells are stirred on ice for 15 min and then centrifuged at 5000 rpms for 20 min. The protein is purified by loading the centrifuged cell lysate onto a 2 mL glutathione-sepharose column and washed three times with 10 mL of 25 mM Tris-HCl, pH 7.5, 2 mM EDTA, 1 mM DTT, 200 mM NaCl. The GST-tagged proteins are then eluted by 10 applications (1 mL each) of 25 mM Tris-HCl, pH 7.5, 10 mM reduced-glutathione, 100 mM NaCl, 1 mM DTT, 10% Glycerol and stored at −70° C.
Cancer Cell; 5: 231-239]. The test compound is dissolved in DMSO (10 mM) and stored at −20° C. Serial dilutions are freshly made in DMSO and are […] concentrated than test solutions (“pre-dilution plates”). They are further diluted with pure water to yield “master plates” containing 3 times concentrated test solutions in 3% DMSO. The final volume of the assay is 30 μL containing 10 μL of test solution (1% DMSO), 10 μL assay mix including the assay components described by Garcia-Echeverria (2004) and in the following section as well as 10 μL enzyme. The pipetting steps can be programmed to be performed either on the MultiPROBE Iix, MultiPROBE IILx or HamiltonSTAR robots in the 96 well format.
The protein kinase assays are carried as described in details by Garcia-Echeverria (see above). The assay for JAK2 is carried out in 96-well plates at ambient temperature for 10 min (filter-biding method) or 30 min (flash plates) in a finial volume of 30 μL including the following components: 300 ng of GST-JAK2, 20 mM Tris-HCl, pH 7.5, 1.0 mM MnCl2, 10 mM MgCl2, 1 mM DTT, 3 μg/mL poly(Glu, Tyr) 4:1, 1% DMSO and 1.0 μM ATP (γ-[^33P]-ATP 0.1 μCi); The assays are terminated by the addition of 20 μl of 125 mM EDTA. The capturing of the phosphorylated peptides by the filter-binding method is performed as following: 40 μL of the reaction mixture are transferred onto Immobilon-PVDF membranes previously soaked for 5 min with methanol, rinsed with water, then soaked for 5 min with 0.5% H3PO4 and mounted on vacuum manifold with disconnected vacuum source. After spotting all samples, vacuum is connected and each well rinsed with 200 μl 0.5% H3PO4. Free membranes are removed and washed 4× on a shaker with 1.0% H3PO4, once with ethanol. Membranes are counted after drying at ambient temperature, mounting in Packard TopCount 96-well frame, and addition of 10 μl/well of Microscint. The plates are eventually sealed and counted in a microplate scintillation counter (TopCount NXT, TopCount NXT HTS, PerkinElmer, Brussels, Belgium).
The assays for the flash plate method is carried out in a total volume of 30 μL at RT in conventional 96-well flash plates. The reaction is stopped after 30 min by the addition of 20 μL of 125 mM EDTA The assay plates are then washed three times with PBS and dried at room temperature. The plates are sealed and counted in a microplate scintillation counter (TopCount NXT, TopCount NXT HTS). IC50 values are calculated by linear regression analysis of the percentage inhibition of the compound either in duplicate, at four concentrations (usually 0.01, 0.1, 1 and 10 μM) or as 8 single point IC50 starting at 10 μM following by 1:3 dilutions.

GST-JAK2(808-1132) = biological target: T2, GST-JAK2(808-1132) (Homo sapiens, UniProt O60674); experiment: EPK JAK/TYK-kinase family profiling assay (Caliper mobility shift), JAK2; format: biochemical; settings: Caliper mobility shift assay of Example 187, 20 μM ATP, read-out: IC50 with Test in present Example
T2 construct: GST-JAK2(808-1132) is purchased from Invitrogen; purchased Invitrogen (Carlsbad, USA) #4288
T2 sequence (O60674 808-1132): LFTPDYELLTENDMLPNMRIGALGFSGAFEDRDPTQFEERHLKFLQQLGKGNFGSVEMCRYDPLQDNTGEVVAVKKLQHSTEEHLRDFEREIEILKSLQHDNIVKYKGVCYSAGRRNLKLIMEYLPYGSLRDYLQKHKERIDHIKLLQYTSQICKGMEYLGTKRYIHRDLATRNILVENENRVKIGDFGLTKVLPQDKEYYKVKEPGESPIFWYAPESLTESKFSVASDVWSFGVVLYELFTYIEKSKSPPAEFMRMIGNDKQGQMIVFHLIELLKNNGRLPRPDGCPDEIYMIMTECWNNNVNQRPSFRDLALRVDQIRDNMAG
How it was run: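 Caliper mobility-shift assay with the GST-tagged kinase domain and a fluorescently labeled peptide substrate plus ATP, run 60 min at 30° C and then stopped with EDTA buffer. Turnover was taken as the substrate/product ratio. Compounds were tested at eight final concentrations from 10 to 0.003 μM.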

Row | Compound | melting point | IC50 (GST-JAK2) | IC50 (GST-JAK2(808-1132))
1 | COc1cc(Nc2nc3cccc(-c4ccc(NS(C)(=O)=O)cc4)c3o2)cc(OC)c1OC (hydrate or solvate) [Example 26, N-{4-[2-(3,4,5-Trimethoxy-phenylamino)-benzooxazol-7-yl]-phenyl}-methanesulfonamide] | 222 to 225 °C | – | –
2 | COc1cc(Nc2nc3cccc(-c4ccc(CN)cc4)c3o2)cc(OC)c1OC (hydrate or solvate) [Example 29, [7-(4-Aminomethyl-phenyl)-benzooxazol-2-yl]-(3,4,5-trimethoxy-phenyl)-amine] | 208 to 211 °C | – | –
3 | COc1cc(Nc2nc3cccc(-c4ccc5[nH]cnc5c4)c3o2)cc(OC)c1OC (hydrate or solvate) [Example 35, [7-(1H-Benzoimidazol-5-yl)-benzooxazol-2-yl]-(3,4,5-trimethoxy-phenyl)-amine] | 150 to 156 °C | – | –
4 | COc1cc(Nc2nc3cccc(-c4cccc(C)c4)c3o2)cc(OC)c1OC [Example 1, (7-m-Tolyl-benzooxazol-2-yl)-(3,4,5-trimethoxy-phenyl)-amine] | 155 to 158 °C | 337 nM | –
5 | COc1cc(Nc2nc3cccc(-c4cccnc4)c3o2)cc(OC)c1OC [Example 3, (7-Pyridin-3-yl-benzooxazol-2-yl)-(3,4,5-trimethoxy-phenyl)-amine] | 165 to 170 °C | 583 nM | –
6 | COc1ccccc1-c1cccc2nc(Nc3cc(OC)c(OC)c(OC)c3)oc12 [Example 5, [7-(2-Methoxy-phenyl)-benzooxazol-2-yl]-(3,4,5-trimethoxy-phenyl)-amine] | 185 to 187 °C | 150 nM | –
7 | COc1ccc(-c2cccc3nc(Nc4cc(OC)c(OC)c(OC)c4)oc23)cc1 [Example 7, [7-(4-Methoxy-phenyl)-benzooxazol-2-yl]-(3,4,5-trimethoxy-phenyl)-amine] | 179 to 182 °C | – | –
8 | COc1cc(Nc2nc3cccc(-c4cccc(N)c4)c3o2)cc(OC)c1OC [Example 10, [7-(3-Amino-phenyl)-benzooxazol-2-yl]-(3,4,5-trimethoxy-phenyl)-amine] | 145 to 170 °C | 132 nM | –
9 | COc1cc(Nc2nc3cccc(-c4ccc(N)cc4)c3o2)cc(OC)c1OC [Example 11, [7-(4-Amino-phenyl)-benzooxazol-2-yl]-(3,4,5-trimethoxy-phenyl)-amine] | 192 to 196 °C | 147 nM | –
10 | COc1cc(Nc2nc3cccc(-c4ccc(CC(=O)N5CCOCC5)cc4)c3o2)cc(OC)c1OC [Example 140, 1-Morpholin-4-yl-2-{4-[2-(3,4,5-trimethoxy-phenylamino)-benzooxazol-7-yl]-phenyl}-ethanone] | – | 140 nM | 3.7 nM
11 | COc1cc(Nc2nc3cccc(-c4ccc(C(=O)N5CCN(C)CC5)cc4)c3o2)cc(OC)c1OC [Example 142, (4-Methyl-piperazin-1-yl)-{4-[2-(3,4,5-trimethoxy-phenylamino)-benzooxazol-7-yl]-phenyl}-methanone] | – | 700 nM | 58.5 nM

The remaining lines, values ahead:

Row | melting point | IC50 (GST-JAK2) | IC50 (GST-JAK2(808-1132)) | Compound
12 | 265 to 270 °C | – | – | COc1cc(Nc2nc3cccc(-c4ccc(NC(C)=O)cc4)c3o2)cc(OC)c1OC (hydrate or solvate) [Example 27, N-{4-[2-(3,4,5-Trimethoxy-phenylamino)-benzooxazol-7-yl]-phenyl}-acetamide]
13 | 237 to 239 °C | – | – | COc1cc(Nc2nc3cccc(-c4ccc(CNC(C)=O)cc4)c3o2)cc(OC)c1OC (hydrate or solvate) [Example 30, N-{4-[2-(3,4,5-Trimethoxy-phenylamino)-benzooxazol-7-yl]-benzyl}-acetamide]
14 | 260 to 262 °C | – | – | CNC(=O)c1cc(-c2cccc3nc(Nc4cc(OC)c(OC)c(OC)c4)oc23)cs1 (hydrate or solvate) [Example 34, 4-[2-(3,4,5-Trimethoxy-phenylamino)-benzooxazol-7-yl]-thiophene-2-carboxylic acid methylamide]
15 | 148 to 151 °C | – | – | COc1cc(Nc2nc3ccnc(-c4ccc(N)cc4)c3o2)cc(OC)c1OC (hydrate or solvate) [Example 36, [4-(4-Amino-phenyl)-oxazolo[5,4-c]pyridin-2-yl]-(3,4,5-trimethoxy-phenyl)-amine]
16 | 182 to 185 °C | – | – | COc1cc(Nc2nc3cccc(-c4ccccc4)c3o2)cc(OC)c1OC [Example 2, (7-Phenyl-benzooxazol-2-yl)-(3,4,5-trimethoxy-phenyl)-amine]
17 | 167 to 170 °C | 99 nM | – | COc1cccc(-c2cccc3nc(Nc4cc(OC)c(OC)c(OC)c4)oc23)c1 [Example 4, [7-(3-Methoxy-phenyl)-benzooxazol-2-yl]-(3,4,5-trimethoxy-phenyl)-amine]
18 | 201 to 203 °C | 368 nM | – | COc1cc(Nc2nc3cccc(-c4cncc5ccccc45)c3o2)cc(OC)c1OC [Example 8, (7-Isoquinolin-4-yl-benzooxazol-2-yl)-(3,4,5-trimethoxy-phenyl)-amine]
19 | 199 to 201 °C | 590 nM | – | COc1cc(Nc2nc3cccc(-c4cccc(Cl)c4)c3o2)cc(OC)c1OC [Example 9, [7-(3-Chloro-phenyl)-benzooxazol-2-yl]-(3,4,5-trimethoxy-phenyl)-amine]
20 | 192 to 193 °C | 670 nM | – | COc1ccc(-c2cccc3nc(Nc4cc(OC)c(OC)c(OC)c4)oc23)cn1 [Example 12, [7-(6-Methoxy-pyridin-3-yl)-benzooxazol-2-yl]-(3,4,5-trimethoxy-phenyl)-amine]
21 | 188 to 190 °C | 174 nM | – | COc1cc(Nc2nc3cccc(-c4ccc(C)c(N)c4)c3o2)cc(OC)c1OC [Example 13, [7-(3-Amino-4-methyl-phenyl)-benzooxazol-2-yl]-(3,4,5-trimethoxy-phenyl)-amine]
22 | – | 160 nM | 170 nM | COc1cc(Nc2nc3cccc(-c4ccc(S(N)(=O)=O)cc4)c3o2)cc(OC)c1 [Example 60, 4-[2-(3,5-Dimethoxy-phenylamino)-benzooxazol-7-yl]-benzenesulfonamide]
23 | – | 230 nM | 16 nM | COc1cc(Nc2nc3ccnc(-c4ccc(CNS(C)(=O)=O)cc4)c3o2)cc(OC)c1OC [Example 62, N-{4-[2-(3,4,5-Trimethoxy-phenylamino)-oxazolo[5,4-c]pyridin-4-yl]-benzyl}-methanesulfonamide]
24 | – | 400 nM | 120 nM | CNS(=O)(=O)c1ccc(-c2cccc3nc(Nc4ccc(OC)cc4)oc23)cc1 [Example 139, 4-[2-(4-Methoxy-phenylamino)-benzooxazol-7-yl]-N-methyl-benzenesulfonamide]
25 | – | 220 nM | 8.1 nM | COc1cc(Nc2nc3cccc(-c4ccc(C(=O)N5CCOCC5)cc4)c3o2)cc(OC)c1OC [Example 141, Morpholin-4-yl-{4-[2-(3,4,5-trimethoxy-phenylamino)-benzooxazol-7-yl]-phenyl}-methanone]
